Values after ≈ are worked out from the molar mass of the structure shown.
Assay: Test on the solubility in a simulated body fluid
Type: physicochemical
Procedure: Test on the Solubility in a Simulated Body Fluid
The concentration of the drug dissolved in the PBS buffered solution was determined with an HPLC-a method.

[1] = 0.01 M PBS pH 7.4, 37° C., 5 min
[2] = 0.01 M PBS pH 7.4, 37° C., 15 min
[3] = 0.01 M PBS pH 7.4, 37° C., 30 min
[4] = 0.01 M PBS pH 7.4, 37° C., 24 h

Structure (SMILES) | Compound concentration: Bupivacaine [1] | Compound concentration: Bupivacaine [2] | Compound concentration: Bupivacaine [3] | Compound concentration: Bupivacaine (0.01 M PBS pH 7.4, 37° C., 1 h) | Compound concentration: Bupivacaine (0.01 M PBS pH 7.4, 37° C., 2 h) | Compound concentration: Bupivacaine (0.01 M PBS pH 7.4, 37° C., 6 h) | Compound concentration: Bupivacaine [4] | Compound concentration: DTTA [1] | Compound concentration: DTTA [2] | Compound concentration: DTTA [3] | Compound concentration: DTTA (0.01 M PBS pH 7.4, 37° C., 1 h) | Compound concentration: DTTA (0.01 M PBS pH 7.4, 37° C., 2 h) | Compound concentration: DTTA (0.01 M PBS pH 7.4, 37° C., 6 h) | Compound concentration: DTTA [4] | other results
CCCCN1CCCCC1C(=O)Nc1c(C)cccc1C (stereo not drawn) [Bupivacaine free base, reference compound] | – | – | – | – | – | – | – | – | – | – | – | – | – | – | solubility at 24 h (phosphate buffered saline (simulated body fluid), 37 °C, aqueous buffer, thermodynamic from solid, simulated body fluid, 0.01 M PBS at pH 7.4, read-out: Saturated solubility): 1450 µM (≈ 418 µg/mL)
CCCCN1CCCCC1C(=O)Nc1c(C)cccc1C.O=C(OC(C(=O)O)C(OC(=O)c1ccccc1)C(=O)O)c1ccccc1 (stereo not drawn) [Preparation Example 1, mono(bupivacaine) dibenzoyl tartarate] | 4884.6 µM | 6987.2 µM | 7755.2 µM | 8196 µM | 7911.7 µM | 7006.1 µM | 5767.9 µM | – | – | – | – | – | – | – | Compound concentration: DBTA [1]: 4992 µM; Compound concentration: DBTA [2]: 7107.7 µM; Compound concentration: DBTA [3]: 7866.6 µM; Compound concentration: DBTA (0.01 M PBS pH 7.4, 37° C., 1 h): 8284.6 µM; Compound concentration: DBTA (0.01 M PBS pH 7.4, 37° C., 2 h): 8015.5 µM; Compound concentration: DBTA (0.01 M PBS pH 7.4, 37° C., 6 h): 7590.5 µM; Compound concentration: DBTA [4]: 7303.7 µM
CCCCN1CCCCC1C(=O)Nc1c(C)cccc1C.CCCCN1CCCCC1C(=O)Nc1c(C)cccc1C.O=C(OC(C(=O)O)C(OC(=O)c1ccccc1)C(=O)O)c1ccccc1 (stereo not drawn) [Preparation Example 2, bis(bupivacaine) dibenzoyl tartarate] | 819 µM | 1593.7 µM | 2133.2 µM | 2848.7 µM | 3565.4 µM | 6577 µM | 6389.6 µM | – | – | – | – | – | – | – | Compound concentration: DBTA [1]: 769.6 µM; Compound concentration: DBTA [2]: 1550.4 µM; Compound concentration: DBTA [3]: 2183.8 µM; Compound concentration: DBTA (0.01 M PBS pH 7.4, 37° C., 1 h): 3035.9 µM; Compound concentration: DBTA (0.01 M PBS pH 7.4, 37° C., 2 h): 3953.3 µM; Compound concentration: DBTA (0.01 M PBS pH 7.4, 37° C., 6 h): 6336.3 µM; Compound concentration: DBTA [4]: 6122.7 µM
CCCCN1CCCCC1C(=O)Nc1c(C)cccc1C.Cc1ccc(C(=O)OC(C(=O)O)C(OC(=O)c2ccc(C)cc2)C(=O)O)cc1 (stereo not drawn) [Preparation Example 3, mono(bupivacaine) di-p-toluoyl tartarate] | 7947.6 µM | 7862.6 µM | 7662.2 µM | 7519 µM | 7719.3 µM | 7883.2 µM | 7917.8 µM | 7316.3 µM | 7244.6 µM | 7012.2 µM | 6900.6 µM | 7048.1 µM | 7211.7 µM | 7249 µM | –
CCCCN1CCCCC1C(=O)Nc1c(C)cccc1C.CCCCN1CCCCC1C(=O)Nc1c(C)cccc1C.Cc1ccc(C(=O)OC(C(=O)O)C(OC(=O)c2ccc(C)cc2)C(=O)O)cc1 (stereo not drawn) [Preparation Example 4, bis(bupivacaine) di-p-toluoyl tartarate] | 11389.4 µM | 12009.1 µM | 11426.9 µM | 11256.7 µM | 11278.1 µM | 11851.8 µM | 11693.3 µM | 5161 µM | 5399.5 µM | 5135 µM | 5084.8 µM | 5068.3 µM | 5312 µM | 5219.7 µM | –
CCCN1CCCC[C@H]1C(=O)Nc1c(C)cccc1C.Cc1ccc(C(=O)OC(C(=O)O)C(OC(=O)c2ccc(C)cc2)C(=O)O)cc1 (stereo not drawn) [Preparation Example 5, mono(ropivacaine) di-p-toluoyl tartarate] | – | – | – | – | – | – | – | 6676.8 µM | 6612.8 µM | 6704 µM | 6752.1 µM | 6988 µM | 6971.8 µM | 7073.8 µM | Compound concentration: Ropivacaine [1]: 7268.7 µM; Compound concentration: Ropivacaine [2]: 7215.5 µM; Compound concentration: Ropivacaine [3]: 7287.2 µM; Compound concentration: Ropivacaine (0.01 M PBS pH 7.4, 37° C., 1 h): 7343.7 µM; Compound concentration: Ropivacaine (0.01 M PBS pH 7.4, 37° C., 2 h): 7630.4 µM; Compound concentration: Ropivacaine (0.01 M PBS pH 7.4, 37° C., 6 h): 7604.1 µM; Compound concentration: Ropivacaine [4]: 7648.9 µM
CCCN1CCCC[C@H]1C(=O)Nc1c(C)cccc1C.CCCN1CCCC[C@H]1C(=O)Nc1c(C)cccc1C.Cc1ccc(C(=O)OC(C(=O)O)C(OC(=O)c2ccc(C)cc2)C(=O)O)cc1 (stereo not drawn) [Preparation Example 6, bis(ropivacaine) di-p-toluoyl tartarate] | – | – | – | – | – | – | – | 13380.8 µM | 15017.3 µM | 18586.4 µM | 19990.1 µM | 19679 µM | 19617.2 µM | 22843.9 µM | Compound concentration: Ropivacaine [1]: 26058.5 µM; Compound concentration: Ropivacaine [2]: 29888.8 µM; Compound concentration: Ropivacaine [3]: 38657.6 µM; Compound concentration: Ropivacaine (0.01 M PBS pH 7.4, 37° C., 1 h): 41983.6 µM; Compound concentration: Ropivacaine (0.01 M PBS pH 7.4, 37° C., 2 h): 41011.1 µM; Compound concentration: Ropivacaine (0.01 M PBS pH 7.4, 37° C., 6 h): 40777.8 µM; Compound concentration: Ropivacaine [4]: 47445.3 µM
CCCCN1CCCCC1C(=O)Nc1c(C)cccc1C.O=P1(O)Oc2ccc3ccccc3c2-c2c(ccc3ccccc23)O1 [Preparation Example 7, bupivacaine binaphthol phosphate] | 263 µM | 271.4 µM | 310.5 µM | 280.7 µM | 314.8 µM | 317.7 µM | 268.4 µM | – | – | – | – | – | – | – | Compound concentration: naphthol phosphate [1]: 293.5 µM; Compound concentration: naphthol phosphate [2]: 275.6 µM; Compound concentration: naphthol phosphate [3]: 264.3 µM; Compound concentration: naphthol phosphate (0.01 M PBS pH 7.4, 37° C., 1 h): 263.3 µM; Compound concentration: naphthol phosphate (0.01 M PBS pH 7.4, 37° C., 2 h): 278.9 µM; Compound concentration: naphthol phosphate (0.01 M PBS pH 7.4, 37° C., 6 h): 288.4 µM; Compound concentration: naphthol phosphate [4]: 264.6 µM; stability of the suspension (ratio between acid radical and basic group) (simulated body fluid): stable; solubility (simulated body fluid, 0.01 M PBS pH 7.4, 37° C.): about 0.3 mM
CC1(C)C2CCC1(CS(=O)(=O)O)C(=O)C2.CCCCN1CCCCC1C(=O)Nc1c(C)cccc1C (stereo not drawn) [Preparation Example 8, bupivacaine camphorsulfonate] | 47678.3 µM | 57125.4 µM | 68314.9 µM | 68195.8 µM | 68902.6 µM | 71253.9 µM | 66020 µM | – | – | – | – | – | – | – | –

Reference: US11084790B2, “Insoluble complex or solvate thereof, pharmaceutical composition and use thereof” (Fruithy Holdings Limited, priority 2017, dated 2021)
